{
  "source": "patent EP3443980A1",
  "about": "“COMPOUND FOR THE TREATMENT OF PATIENTS WITH LEPTIN-RESISTANT OBESITY, BARDET-BIEDL SYNDROME AND OTHER CILIOPATHIES” (Ciliocure Limited, priority 2017, dated 2019)",
  "format_in_all_cases": "in vivo",
  "key": {"BBS12^-/- mice": {"test_system": "BBS12^-/- mice", "experiment": "Apoptosis of photoreceptors in BBS12 model: retinal explants and BBS12-/- mice (Experiments 1a, 1b)", "settings": "another mouse model for Bardet-Biedl syndrome", "procedure": "Experiment 1a: Effects of GLP-1 in ex-vivo model (retinal explants): In BBS12-deprived retinal explants and the Bbs12^/ murine model, impaired intraciliary transport results in protein retention in the endoplasmic reticulum. The protein overload activates a pro-apoptotic unfolded protein response leading to a specific Caspase12-mediated apoptosis of the photo-receptors. BBS12-deprived retinal explants are incubated with Ac-GLP-1 (7-34)amide and Caspase12-mediated apoptosis of the photo-receptors is compared to the apoptosis rate of BBS12-deprived retinal explants, which have been treated with the vehicle only.\n• 15-day-old mice are sacrificed by decapitation, and the eyes are removed • First, the sclera is carefully removed, leaving the retinal pigmented epithelium attached to the eye ball. • Incisions are made at the edge of the cornea to remove cornea, lens, and hyaloid body. • Retinas are transferred, with retinal pigmented epithelium side down, to a culture membrane • Retina explants are maintained at 37 °C in a humidified 5% CO2 atmosphere. • Specific gene silencing with lentiviruses that carry a shRNA sequence for Bbs12 is performed. • Drugs are added to the culture medium […]"}, "[1]": {"test_system": "mice carrying the M390R mutation in the Bbs1 gene (Bbs1^M390R)", "experiment": "Retinal degeneration (rod-cone dystrophy, retinal cell apoptosis) in Bbs1 M390R mice (Experiment 3)", "settings": "the same mouse model for Bardet-Biedl syndrome", "procedure": "(§1) Experiment 3: The purpose of the experiment is to study the effects of GLP-1 receptor agonists on • Development of rod-cone dystrophy in mice carrying the M390R mutation in the Bbs1 gene (Bbs1^M390R). In this particular experiment the GLP-1 receptor agonist used is acetyl-GLP-1(7-34)amide. The M390R mutation in the Bbs1 gene can also be found in human Bardet-Biedl syndrome.\nMale Bbs1^M390R mice are used in the experiment. From postnatal day 6 to postnatal day 30 the experimental group is treated intraperitoneally with acetyl-GLP-1 (7-34)amide. Mice of the control group are treated during the same age period with vehicle.\nAnalysis of endpoints: comparison of control vs GLP-1 At the end of the treatment period, mice are investigated by use of electroretinography (ERG), optical coherence tomography (OCT) and histology."}, "[2]": {"test_system": "leptin-resistant obese mice carrying the M390R mutation in the Bbs1 gene (Bbs1^M390R)", "experiment": "Body weight and food intake of leptin-resistant obese Bbs1 M390R mice (Experiment 2)", "settings": "mouse model for Bardet-Biedl syndrome with leptin resistance", "excerpt": "as §1, with “2:” for “3:”, “body weight and food intake” for “Development”, “leptin-resistant obese” for “rod-cone dystrophy in”, “(Bbs1^M390R) and on • body weight and food intake of lean wild type littermate controls, both groups fed ad libitum.” for “(Bbs1^M390R).”\nMale 12-16 weeks old mice are housed in individual cages for 3-5 days to acclimate to single housing conditions before baseline body weight and 24-hour food intake is determined during 4 days. Then food intake and body weight is tested in response to treatment with acetyl-GLP-1(7-34)amide. […]\nDuring the treatment period, mice continue to have free access to food. […] At the end of the 7-day treatment period, body composition is determined in live mice using nuclear magnetic resonance (NMR) tomography. Mice are then sacrificed and the weight of various organs and tissues including various fat depots, liver, kidneys, heart, lung and brain are measured. […]"}},
  "data": [
    {"smiles": "CC[C@H](C)[C@H](NC(=O)[C@H](Cc1ccccc1)NC(=O)[C@H](CCC(=O)O)NC(=O)[C@H](CCCCN)NC(=O)[C@H](C)NC(=O)[C@H](C)NC(=O)[C@H](CCC(N)=O)NC(=O)CNC(=O)[C@H](CCC(=O)O)NC(=O)[C@H](CC(C)C)NC(=O)[C@H](Cc1ccc(O)cc1)NC(=O)[C@H](CO)NC(=O)[C@H](CO)NC(=O)[C@@H](NC(=O)[C@H](CC(=O)O)NC(=O)[C@H](CO)NC(=O)[C@@H](NC(=O)[C@H](Cc1ccccc1)NC(=O)[C@@H](NC(=O)CNC(=O)[C@H](CCC(=O)O)NC(=O)[C@H](C)NC(=O)[C@H](Cc1c[nH]cn1)NC(C)=O)[C@@H](C)O)[C@@H](C)O)C(C)C)C(=O)N[C@@H](C)C(=O)N[C@@H](Cc1c[nH]c2ccccc12)C(=O)N[C@@H](CC(C)C)C(=O)N[C@H](C(=O)N[C@@H](CCCCN)C(N)=O)C(C)C", "note": "[Ac-GLP-1 (7-34)amide, N-acetyl-GLP-1(7-34)amide]", "values": [
      {"measurement": "apoptosis of retinal cells", "setting": "BBS12^-/- mice", "result": "inhibits apoptosis of retinal cells"},
      {"measurement": "apoptosis of retinal cells", "setting": "[1]", "result": "inhibits apoptosis of retinal cells"},
      {"measurement": "food intake", "setting": "[2]", "result": "inhibit food intake"},
      {"measurement": "weight loss", "setting": "[2]", "result": "stimulate weight loss"}
    ]}
  ]
}
